“Also recorded” adds a separate entry of the source. Structures can show the parent of a compound that is named as a salt. Where two headings read alike, the source gives them in different places.
Experiments:
[1] = Elution of bupivacaine from spray-coated ureteral stents in aqueous buffers of different pH; type: physicochemical
Excerpt: (§1) An approximately 0.6% solution of bupivacaine having a tertiary amine in the non-ionic form (formula (2a) above) in dichloromethane was loaded into a syringe mounted onto a syringe pump and connected to a tube that carried the solution to an ultrasonic nozzle (Model 06-05108—Sono-Tek Co., Poughkeepsie, N.Y. 12547.) A nozzle was 6 mm diameter, 11 mm long and used with a nominal frequency of 120 kHz. Air was purged from the solution line and the spray nozzle primed with the solution. The coating chamber was purged with nitrogen to attain an oxygen concentration below 100 ppm. The solution was sprayed onto ureteral stent substrates 20 to 280 mm long (polyurethane double pigtail soflex ureteral stent, Cook Incorporated (Bloomington, Ind.)). A smooth, uniform coating was observed. Control stents were coated with the same concentration of Bupivacaine.HCl using the above coating method.
The stents were placed in solutions at different pH values to test the elution of bupivacaine over time. […] Acetic acid/sodium acetate was used for the pH 4.5 buffer, 0.1 M phosphate-buffered solution (PBS) for the pH 7.0 buffer, and sodium carbonate for the pH 9.5 buffer.

[2] = Exposure of coated ureteral stent to water / aqueous environment (photomicrographs of coating); type: physicochemical
Excerpt: as §1
(§2) FIGS. 4-7 depict photomicrographs of the coatings showing the uniformity and tenacity of the non-ionic coatings, in contrast to the water-soluble ionic coatings. […] FIG. 5 depicts a relatively rough, crystalline coating 91 of Bupivacaine.HCl on a ureteral stent 90, on the left, and the same stent after a one-minute ex vivo exposure to a pig ureter.
(§3) FIG. 7 then depicts the same type of stent 110 with a coating 114 of the non-ionic form of bupivacaine after 24 hours in an ex vivo test with a pig ureter.

[3] = Ex vivo exposure of coated ureteral stent to a pig ureter
Excerpt: as §1, §2, §3

[4] = cited from earlier work
[5] = Table 1, anesthetics having protonated and unprotonated forms; cited from earlier work

state of stent coating after dipping in water ([2]; dipped in water for one minute (FIG. 4)) | period over which release from ureteral stent occurs ([1]; coated polyurethane ureteral stent, solutions of pH 4.5, 7.0 and 9.5) | dependence of release rate on pH of the eluting solution ([1]; pH 4.5, 7.0, 9.5) | state of stent coating after exposure to aqueous environment ([2]; aqueous environment for several days (FIG. 6)) | Structure (SMILES) | time of release/elution from coated stent ([1]; control stents coated with ionic form, aqueous solutions, same conditions, hydrochloride) | state of stent coating after ex vivo exposure to pig ureter ([3]; one-minute ex vivo exposure (FIG. 5)) | solubility in water (words) ([4]; hydrochloride) | solubility in water (words) ([4]; listed as bupivacaine hydrochloride, hydrochloride) | pKa [5] | state of stent coating after ex vivo test with pig ureter ([3]; 24 hours ex vivo (FIG. 7)) | solubility ([4]; base or non-ionic form) | solubility in water (words) [4] | solubility in water (words) ([4]; listed as Bupivacaine)
coating is substantially dissolved |  |  |  | CCCCN1CCCCC1C(=O)Nc1c(C)cccc1C (centres unmarked) [Bupivacaine.HCl, 1-butyl-N-(2,6-dimethylphenyl)-2-piperidinecarboxamide hydrochloride] | within a matter of minutes; also recorded: eluted fully within minutes | Most of the coating 92 has been dissolved | water-soluble | soluble in water |  |  |  |  | 
 |  |  |  | CCCN1CCCC[C@H]1C(=O)Nc1c(C)cccc1C [ropivacaine] |  |  |  |  | 8.16 |  |  |  | 
 | about 12 days | approximately the same rate | virtually no effect on the coating | CCCCN1CCCCC1C(=O)Nc1c(C)cccc1C (centres unmarked) [bupivacaine] |  |  |  |  | 8.09 | most of the non-ionic form of the bupivacaine coating remains on the stent | about 0.2 mg/mL | only very slightly soluble in water | sparingly soluble in water

— patent US20080081829A1, “Medical Device Including an Anesthetic and Method of Preparation Thereof” (MED Institute, Inc, priority 2006, published 2008)
